Measurements published in patent publication US7192924B2, “Corticotropin releasing factor 2 receptor agonists” (priority 2002, dated 2007).
Ends that are not written are not given here. Peptide text beside a SMILES is read from it.

Tests used:
CRF1R = molecular target: T1, CRF1R (Homo sapiens, UniProt P34998); experiment: CRF1R agonist activity (EC50, Emax), called comparative CRF binding; type: cell-based; details: read-out: CRF1R EC50
T1 sequence (P34998 24-415): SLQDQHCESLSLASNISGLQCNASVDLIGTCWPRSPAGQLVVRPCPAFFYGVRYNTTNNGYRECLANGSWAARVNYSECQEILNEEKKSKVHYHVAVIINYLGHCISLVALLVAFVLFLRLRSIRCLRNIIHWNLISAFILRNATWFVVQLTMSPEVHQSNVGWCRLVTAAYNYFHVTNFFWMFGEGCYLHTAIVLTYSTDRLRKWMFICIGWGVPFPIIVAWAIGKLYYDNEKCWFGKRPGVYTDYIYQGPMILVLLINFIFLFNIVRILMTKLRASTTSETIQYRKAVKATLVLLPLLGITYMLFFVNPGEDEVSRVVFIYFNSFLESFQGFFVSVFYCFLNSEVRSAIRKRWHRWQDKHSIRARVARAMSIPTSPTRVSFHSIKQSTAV
In short: (§1)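 Agonism is judged from increased cAMP, measured either directly in lysates or through reporter genes under a cAMP responsive element. Cells or membranes express only the receptor of interest, and vehicle-treated cells serve as control.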

CRF2R = molecular target: T2, CRF2R (Homo sapiens, UniProt Q13324); experiment: CRF2R agonist activity (EC50, Emax), called comparative CRF binding; type: cell-based; details: read-out: CRF2R EC50
T2 sequence (Q13324 1-411): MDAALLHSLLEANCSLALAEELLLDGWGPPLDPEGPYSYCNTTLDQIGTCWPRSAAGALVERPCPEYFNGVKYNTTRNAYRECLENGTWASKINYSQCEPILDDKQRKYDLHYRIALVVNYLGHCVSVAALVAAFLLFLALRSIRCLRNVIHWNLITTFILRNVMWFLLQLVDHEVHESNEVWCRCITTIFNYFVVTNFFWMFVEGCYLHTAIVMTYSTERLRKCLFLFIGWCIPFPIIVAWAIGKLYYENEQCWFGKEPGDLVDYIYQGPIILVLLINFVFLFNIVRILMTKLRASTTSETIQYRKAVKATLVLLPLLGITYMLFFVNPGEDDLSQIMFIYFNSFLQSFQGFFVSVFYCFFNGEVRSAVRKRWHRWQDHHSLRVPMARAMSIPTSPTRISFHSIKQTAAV
In short: as §1

| Molecule | EC50 (CRF1R) | EC50 (CRF2R) |
| --- | --- | --- |
| CC[C@H](C)[C@H](NC(=O)[C@H](C)NC(=O)[C@H](CC(N)=O)NC(=O)[C@H](CCC(N)=O)NC(=O)[C@H](CCC(=O)O)NC(=O)[C@H](C)NC(=O)[C@H](CCCNC(=N)N)NC(=O)[C@H](CCC(=O)O)NC(=O)[C@H](CCCNC(=N)N)NC(=O)[C@H](CCC(N)=O)NC(=O)[C@H](CO)NC(=O)[C@H](CCC(N)=O)NC(=O)[C@@H](NC(=O)[C@H](CCCNC(=N)N)NC(=O)[C@H](C)NC(=O)[C@H](CC(C)C)NC(=O)[C@H](CCC(=O)O)NC(=O)[C@H](CC(C)C)NC(=O)[C@H](CC(C)C)NC(=O)[C@@H](NC(=O)[C@H](CCCNC(=N)N)NC(=O)[C@H](CC(C)C)NC(=O)[C@H](CC(C)C)NC(=O)[C@H](CC(C)C)NC(=O)[C@H](CC(C)C)NC(=O)[C@@H]1CCCN1C(=O)[C@H](CC(C)C)NC(=O)[C@H](CC(=O)O)NC(=O)[C@@H](NC(=O)[C@H](CO)NC(=O)[C@H](CC(C)C)NC(=O)[C@H](CO)NC(=O)[C@@H]1CCCN1C(=O)[C@H](CC(N)=O)NC(=O)[C@@H](N)CC(=O)O)[C@@H](C)CC)[C@@H](C)O)[C@@H](C)O)C(=O)N[C@H](C(=O)N[C@@H](Cc1ccccc1)C(=O)N[C@@H](C)C(=O)N[C@@H](CO)C(=O)N[C@H](C(N)=O)C(C)C)[C@@H](C)CC [compound 174] (H-DNPSLSIDLPLLLLRTLLELARTQSQRERAEQNAIIFASV-NH2; N-terminus assumed) | ≥ 1000 nM | 4.42 nM |
| HHHHHHIVLSLDVPIGLLQILLEQARARAAREQATTNARILARN-NH2 [compound 296] | ≥ 100 nM | 6.66 nM |
| CC[C@H](C)[C@H](NC(=O)[C@H](C)NC(=O)[C@H](CC(N)=O)NC(=O)[C@H](CCC(N)=O)NC(=O)[C@H](CCC(=O)O)NC(=O)[C@H](C)NC(=O)[C@H](CCCNC(=N)N)NC(=O)[C@H](CCC(=O)O)NC(=O)[C@H](CCCNC(=N)N)NC(=O)[C@H](CCC(N)=O)NC(=O)[C@H](CO)NC(=O)[C@H](CCC(N)=O)NC(=O)[C@@H](NC(=O)[C@H](CCCNC(=N)N)NC(=O)[C@H](C)NC(=O)[C@H](CC(C)C)NC(=O)[C@H](CCC(=O)O)NC(=O)[C@H](CC(C)C)NC(=O)[C@H](CC(C)C)NC(=O)[C@@H](NC(=O)[C@H](CCCNC(=N)N)NC(=O)[C@H](CC(C)C)NC(=O)[C@H](CC(C)C)NC(=O)[C@H](Cc1ccc(O)cc1)NC(=O)[C@H](Cc1ccc(O)cc1)NC(=O)[C@@H]1CCCN1C(=O)[C@H](CC(C)C)NC(=O)[C@H](CC(=O)O)NC(=O)[C@@H](NC(=O)[C@H](CO)NC(=O)[C@H](CC(C)C)NC(=O)[C@H](CO)NC(=O)[C@@H]1CCCN1C(=O)[C@H](CC(N)=O)NC(=O)[C@@H](N)CC(=O)O)[C@@H](C)CC)[C@@H](C)O)[C@@H](C)O)C(=O)N[C@H](C(=O)N[C@@H](Cc1ccccc1)C(=O)N[C@@H](C)C(=O)N[C@@H](CO)C(=O)N[C@H](C(N)=O)C(C)C)[C@@H](C)CC [compound 263] (H-DNPSLSIDLPYYLLRTLLELARTQSQRERAEQNAIIFASV-NH2; N-terminus assumed) | 802 nM | 36.2 nM |
| CC[C@H](C)[C@H](N)C(=O)N[C@H](C(=O)N[C@@H](CC(C)C)C(=O)N[C@@H](CO)C(=O)N[C@@H](CC(C)C)C(=O)N[C@@H](CC(=O)O)C(=O)N[C@H](C(=O)N1CCC[C@H]1C(=O)N[C@H](C(=O)NCC(=O)N[C@@H](CC(C)C)C(=O)N[C@@H](CC(C)C)C(=O)N[C@@H](CCC(N)=O)C(=O)N[C@H](C(=O)N[C@@H](CC(C)C)C(=O)N[C@@H](CC(C)C)C(=O)N[C@@H](CCC(=O)O)C(=O)N[C@@H](CCC(N)=O)C(=O)N[C@@H](CCC(=O)O)C(=O)N[C@@H](CCCCN)C(=O)N[C@@H](CCC(N)=O)C(=O)N[C@@H](CCC(=O)O)C(=O)N[C@@H](C)C(=O)N[C@@H](C)C(=O)N[C@@H](CCCNC(=N)N)C(=O)N[C@@H](CCC(=O)O)C(=O)N[C@@H](CCC(N)=O)C(=O)N[C@@H](C)C(=O)N[C@H](C(=O)N[C@H](C(=O)N[C@@H](CC(N)=O)C(=O)N[C@@H](C)C(=O)N[C@@H](CCCNC(=N)N)C(=O)N[C@H](C(=O)N[C@@H](CC(C)C)C(=O)N[C@@H](C)C(=O)N[C@@H](CCCNC(=N)N)C(=O)N[C@H](C(N)=O)C(C)C)[C@@H](C)CC)[C@@H](C)O)[C@@H](C)O)[C@@H](C)CC)[C@@H](C)CC)C(C)C)C(C)C [compound 125] (H-IVLSLDVPIGLLQILLEQEKQEAAREQATTNARILARV-NH2; N-terminus assumed) | > 100 nM | 4.47 nM |
| CC[C@H](C)[C@H](NC(=O)[C@H](CCC(=O)O)NC(=O)[C@H](C)NC(=O)[C@H](CC(N)=O)NC(=O)[C@H](CCC(N)=O)NC(=O)[C@H](CCC(=O)O)NC(=O)[C@H](C)NC(=O)[C@H](CCCNC(=N)N)NC(=O)[C@H](CCC(=O)O)NC(=O)[C@H](CCCNC(=N)N)NC(=O)[C@H](CCC(N)=O)NC(=O)[C@H](CO)NC(=O)[C@H](CCC(N)=O)NC(=O)[C@@H](NC(=O)[C@H](CCCCN)NC(=O)[C@H](CCC(=O)O)NC(=O)[C@H](CC(C)C)NC(=O)[C@H](CCC(=O)O)NC(=O)[C@H](CC(C)C)NC(=O)[C@H](CC(C)C)NC(=O)[C@@H](NC(=O)[C@H](CCCNC(=N)N)NC(=O)[C@H](CC(C)C)NC(=O)[C@H](CC(C)C)NC(=O)[C@H](CC(C)C)NC(=O)[C@H](CC(C)C)NC(=O)[C@@H]1CCCN1C(=O)[C@H](CC(C)C)NC(=O)[C@H](CC(=O)O)NC(=O)[C@@H](NC(=O)[C@H](CO)NC(=O)[C@H](CC(C)C)NC(=O)[C@H](CO)NC(=O)[C@@H]1CCCN1C(=O)[C@H](CC(N)=O)NC(=O)[C@@H](N)CC(=O)O)[C@@H](C)CC)[C@@H](C)O)[C@@H](C)O)C(=O)N[C@@H](Cc1ccccc1)C(=O)N[C@@H](C)C(=O)N[C@@H](CCC(=O)O)C(=O)N[C@H](C(N)=O)C(C)C [compound 323] (H-DNPSLSIDLPLLLLRTLLELEKTQSQRERAEQNAEIFAEV-NH2; N-terminus assumed) | ≥ 1000 nM | 19.6 nM |
| CC[C@H](C)[C@H](N)C(=O)N[C@H](C(=O)N[C@@H](CC(C)C)C(=O)N[C@@H](CO)C(=O)N[C@@H](CC(C)C)C(=O)N[C@@H](CC(=O)O)C(=O)N[C@H](C(=O)N1CCC[C@H]1C(=O)N[C@H](C(=O)NCC(=O)N[C@@H](CC(C)C)C(=O)N[C@@H](CC(C)C)C(=O)N[C@@H](CCC(N)=O)C(=O)N[C@H](C(=O)N[C@@H](CC(C)C)C(=O)N[C@@H](CC(C)C)C(=O)N[C@@H](CCC(=O)O)C(=O)N[C@@H](CCC(N)=O)C(=O)N[C@@H](CCC(=O)O)C(=O)N[C@@H](CCCCN)C(=O)N[C@@H](C)C(=O)N[C@@H](CCCNC(=N)N)C(=O)N[C@@H](C)C(=O)N[C@@H](C)C(=O)N[C@@H](CCCNC(=N)N)C(=O)N[C@@H](CCC(=O)O)C(=O)N[C@@H](CCC(N)=O)C(=O)N[C@@H](C)C(=O)N[C@H](C(=O)N[C@H](C(=O)N[C@@H](CC(N)=O)C(=O)N[C@@H](C)C(=O)N[C@@H](CCCNC(=N)N)C(=O)N[C@H](C(=O)N[C@@H](CC(C)C)C(=O)N[C@@H](C)C(=O)N[C@@H](CCCNC(=N)N)C(=O)N[C@H](C(N)=O)C(C)C)[C@@H](C)CC)[C@@H](C)O)[C@@H](C)O)[C@@H](C)CC)[C@@H](C)CC)C(C)C)C(C)C [compound 121] (H-IVLSLDVPIGLLQILLEQEKARAAREQATTNARILARV-NH2) | > 100 nM | 5.67 nM |
| NDDPPISIDLPLHLLRNMIEMARIENEREQAGLNAKYLAEV-NH2 [compound 259] | 820 nM | ≥ 100 nM |
| CC[C@H](C)[C@H](N)C(=O)N[C@H](C(=O)N[C@@H](CC(C)C)C(=O)N[C@@H](CO)C(=O)N[C@@H](CC(C)C)C(=O)N[C@@H](CC(=O)O)C(=O)N[C@H](C(=O)N1CCC[C@H]1C(=O)N[C@H](C(=O)NCC(=O)N[C@@H](CC(C)C)C(=O)N[C@@H](CC(C)C)C(=O)N[C@@H](CCC(N)=O)C(=O)N[C@H](C(=O)N[C@@H](CC(C)C)C(=O)N[C@@H](CC(C)C)C(=O)N[C@@H](CCC(=O)O)C(=O)N[C@@H](CCSC)C(=O)N[C@@H](C)C(=O)N[C@@H](CCCNC(=N)N)C(=O)N[C@@H](C)C(=O)N[C@@H](CCC(=O)O)C(=O)N[C@@H](CCC(N)=O)C(=O)N[C@@H](CC(C)C)C(=O)N[C@@H](C)C(=O)N[C@@H](CCC(N)=O)C(=O)N[C@@H](CCC(N)=O)C(=O)N[C@@H](C)C(=O)N[C@@H](Cc1c[nH]cn1)C(=O)N[C@@H](CO)C(=O)N[C@@H](CC(N)=O)C(=O)N[C@@H](CCCNC(=N)N)C(=O)N[C@@H](CCCCN)C(=O)N[C@@H](CC(C)C)C(=O)N[C@@H](CCSC)C(=O)N[C@@H](CCC(=O)O)C(=O)N[C@H](C(=O)N[C@H](C(N)=O)[C@@H](C)CC)[C@@H](C)CC)[C@@H](C)CC)[C@@H](C)CC)C(C)C)C(C)C [compound 164] (H-IVLSLDVPIGLLQILLEMARAEQLAQQAHSNRKLMEII-NH2; N-terminus assumed) | > 100 nM | 2.24 nM |
